Measured values as given in patent US9540323B2 (BRISTOL-MYERS SQUIBB COMPANY, priority 2012, dated 2017).

Assays:
[1] = tested on: human platelet rich plasma (PRP); test: ADP induced platelet aggregation assay; conditions: Homo sapiens, Platelet, 5 min, read-out: PA IC50 (μM) @ 10 μM ADP, human PRP, 10 μM ADP, AUC at 5 minute
[2] = molecular target: T1, cloned human P2Y1 receptors (Homo sapiens (Human), UniProt P47900); test: Binding Assay A - membrane binding assay, [33P] 2MeS-ADP (WGA FlashPlate); conditions: values marked * in Table 1; 0.5 nM [33P] 2MeS-ADP, Cheng-Prusoff; read-out: P2Y1 Ki (nM) using binding assay A
From the text: A membrane binding assay was used to identify inhibitors of [^33P] […] The cDNA clone for human P2Y1 was obtained from Incyte Pharmaceuticals and its sequence confirmed by established techniques (for a compendium of techniques used see Ausubel, F. et al., Current Protocols in Molecular Biology, John Wiley and Sons, NY, NY (1995)). The essential coding sequences were subcloned into pCDNA 3.1 (Invitrogen) to produce a P2Y1 expression construct. This construct was then transfected into the human embryonic kidney cell line HEK-293 and stable transfectants selected in GENETICIN® (G418 sulfate; Life Technologies). […] Membranes were prepared by growing HEK293 #49 in 150 mm dishes in DMEM/10% FBS in the presence of 1 mg/ml G418 until cells were 80-90% confluent. Plates were then washed with cold (4° C.) D-PBS twice and cells harvested by scraping into 10 mL D-PBS. Cells were pelleted by centrifugation (1,000 g, 10 min, 4° C.) and the resulting pellet resuspended in Lysis Buffer (10 mM Tris (7.4), 5 mM MgCl2 containing Complete protease inhibitor cocktail (Roche Cat #1873580) as recommended by the manufacturer). The suspension was then homogenized in a Dounce homogenizer (10-15 strokes; B pestle, on ice) and the homogenate spun at 1,000 g, 4° C., 5 min to pellet large debris. The supernatant was centrifuged at 150,000 g, 4° C., for 1 hour and the resulting membrane pellet resuspended in 0.5-1 mL of Buffer B (15 mM HEPES (7.4), 145 mM NaCl, 0.1 mM MgCl2, 5 mM EDTA, 5 mM KCl) and stored at −70° C. until used.
Binding reactions were performed in WGA FLASHPLATE®s (PerkinElmer Life Sciences, Cat # SMP105A) in a volume of 200 μL containing ˜45 fmol of P2Y1 receptor (5 μg of total protein), 0.5 nM [^33P] […] Reactions were allowed to proceed to completion at room temperature for 1 hour and then the aqueous solution aspirated. Plates were sealed and the residual [^33P] bound to the plate determined by scintillation counting.

[3] = molecular target: T1, cloned human P2Y1 receptors; test: Binding Assay B - Scintillation Proximity Assay (SPA) for P2Y1 binding, [33P] 2MeS-ADP; conditions: read-out: P2Y1 Ki (nM) using binding assay B
Procedure: Binding Assay B—Scintillation Proximity Assay (SPA) for P2Y1 Binding
A SPA membrane binding assay was used to identify inhibitors of [^33P] […] Reactions were allowed to proceed to completion at room temperature for 1 hour followed by centrifugation of the plate for 5 min. About 40 μL of the aqueous solution was aspirated. Plates were sealed and the [^33P]

[4] = SPA, 0.3 nM [33P] 2MeS-ADP, Cheng-Prusoff

T1 sequence (P47900 whole entry): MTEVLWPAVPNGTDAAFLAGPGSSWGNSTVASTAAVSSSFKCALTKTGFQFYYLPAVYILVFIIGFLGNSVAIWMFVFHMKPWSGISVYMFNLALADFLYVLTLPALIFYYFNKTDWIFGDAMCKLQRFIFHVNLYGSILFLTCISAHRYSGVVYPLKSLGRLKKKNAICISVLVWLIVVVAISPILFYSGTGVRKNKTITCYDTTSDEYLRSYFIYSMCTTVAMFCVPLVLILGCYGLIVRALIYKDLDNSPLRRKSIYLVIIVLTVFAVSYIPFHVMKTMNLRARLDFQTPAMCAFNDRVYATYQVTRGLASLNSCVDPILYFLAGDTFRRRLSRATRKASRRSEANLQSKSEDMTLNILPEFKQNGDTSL

CCC1(CC)CN(c2ccccc2NC(=O)Nc2ccc(C3CCCN3CC(C)C)cc2)c2c1ccc(F)c2O (centres unmarked) [Example 36, 1-(2-(3,3-Diethyl-6-fluoro-7-hydroxyindolin-1-yl)phenyl)-3-(4-(1-isobutylpyrrolidin-2-yl)phenyl)urea]
IC50 [1]: 0.21 µM | Ki [2]: 5.7 nM

CCC1(CC)CN(c2ccccc2NC(=O)Nc2nc(C(C)C)ns2)c2c(O)ccc(Cl)c21 [Example 48, 1-(2-(4-Chloro-3,3-diethyl-7-hydroxyindolin-1-yl)phenyl)-3-(3-isopropyl-1,2,4-thiadiazol-5-yl)urea]
IC50 [1]: 0.48 µM | Ki [2]: 7 nM

CCC1(CC)CN(c2ccccc2NC(=O)Nc2nc3ccc(F)cc3s2)c2c(O)ccc(Cl)c21 [Example 49, 1-(2-(4-Chloro-3,3-diethyl-7-hydroxyindolin-1-yl)phenyl)-3-(6-fluorobenzo[d]thiazol-2-yl)urea]
IC50 [1]: 0.18 µM | Ki [2]: 6.6 nM

CC1(C)CN(c2ccccc2NC(=O)Nc2ccc(OC(F)(F)F)cc2)c2c(O)ccc(-c3ccc(F)cn3)c21 [Example 123, 1-(2-(4-(5-Fluoropyridin-2-yl)-7-hydroxy-3,3-dimethylindolin-1-yl)phenyl)-3-(4-(trifluoromethoxy)phenyl)urea]
IC50 [1]: 0.43 µM | Ki [2]: 4.5 nM

CC1(C)CN(c2ccccc2NC(=O)Nc2ccc(OC(F)(F)F)cc2)c2c(O)ccc(-c3nccs3)c21 [Example 124, 1-(2-(7-Hydroxy-3,3-dimethyl-4-(thiazol-2-yl)indolin-1-yl)phenyl)-3-(4-(trifluoromethoxy)phenyl)urea]
IC50 [1]: 0.82 µM | Ki [2]: 3.4 nM

CC1(C)CN(c2ccccc2NC(=O)Nc2ccc(OC(F)(F)F)cc2)c2c(O)ccc(-c3ccc(C(F)(F)F)cn3)c21 [Example 125, 1-(2-(7-Hydroxy-3,3-dimethyl-4-(5-(trifluoromethyl)pyridin-2-yl)indolin-1-yl)phenyl)-3-(4-(trifluoromethoxy)phenyl)urea]
IC50 [1]: 0.15 µM | Ki [2]: 4.8 nM

CC(C)c1cnc(-c2ccc(O)c3c2C(C)(C)CN3c2ccccc2NC(=O)Nc2ccc(OC(F)(F)F)cc2)nc1 [Example 126, 1-(2-(7-Hydroxy-4-(5-isopropylpyrimidin-2-yl)-3,3-dimethylindolin-1-yl)phenyl)-3-(4-(trifluoromethoxy)phenyl)urea]
IC50 [1]: 0.3 µM | Ki [2]: 4.1 nM

CC(C)c1nc(-c2ccc(O)c3c2C(C)(C)CN3c2ccccc2NC(=O)Nc2ccc(OC(F)(F)F)cc2)cs1 [Example 127, 1-(2-(7-Hydroxy-4-(2-isopropylthiazol-4-yl)-3,3-dimethylindolin-1-yl)phenyl)-3-(4-(trifluoromethoxy)phenyl)urea]
IC50 [1]: 0.28 µM | Ki [2]: 4.7 nM

CC1(C)CN(c2ccccc2NC(=O)Nc2nc3ccc(F)cc3s2)c2c(O)ccc(-c3nc4cc(F)ccc4s3)c21 [Example 171, 1-(6-Fluorobenzo[d]thiazol-2-yl)-3-(2-(4-(5-fluorobenzo[d]thiazol-2-yl)-7-hydroxy-3,3-dimethylindolin-1-yl)phenyl)urea]
IC50 [1]: 0.36 µM | Ki [2]: 8.7 nM

CC1(C)CN(c2ccccc2NC(=O)Nc2nc3ccc(Cl)nc3s2)c2c(O)ccc(-c3nc4cc(F)ccc4s3)c21 [Example 173, 1-(5-Chlorothiazolo[5,4-b]pyridin-2-yl)-3-(2-(4-(5-fluorobenzo[d]thiazol-2-yl)-7-hydroxy-3,3-dimethylindolin-1-yl)phenyl)urea]
IC50 [1]: 0.5 µM | Ki [2]: 20.7 nM

CC1(C)CN(c2ccccc2NC(=O)Nc2ccc(OC(F)(F)F)cc2)c2c(O)ccc(-c3nc4ccc(F)cc4s3)c21 [Example 174, 1-(2-(4-(6-Fluorobenzo[d]thiazol-2-yl)-7-hydroxy-3,3-dimethylindolin-1-yl)phenyl)-3-(4-(trifluoromethoxy)phenyl)urea]
IC50 [1]: 0.32 µM | Ki [2]: 6.3 nM

CC(C)n1nc(C(F)(F)F)cc1-c1c(F)cc(O)c2c1C(C)(C)CN2c1ccccc1NC(=O)Nc1nc2ccc(F)cc2s1 [Example 267, 1-(2-(5-Fluoro-7-hydroxy-4-(1-isopropyl-3-(trifluoromethyl)-1H-pyrazol-5-yl)-3,3-dimethylindolin-1-yl)phenyl)-3-(6-fluorobenzo[d]thiazol-2-yl)urea]
IC50 [1]: 0.51 µM | Ki [3, 4]: 16.4 nM

CC(C)n1nc(C(F)(F)F)cc1-c1c(F)cc(O)c2c1C(C)(C)CN2c1ccccc1NC(=O)Nc1nc2ccc(Cl)cc2s1 [Example 268, 1-(6-Chlorobenzo[d]thiazol-2-yl)-3-(2-(5-fluoro-7-hydroxy-4-(1-isopropyl-3-(trifluoromethyl)-1H-pyrazol-5-yl)-3,3-dimethylindolin-1-yl)phenyl)urea]
IC50 [1]: 0.45 µM | Ki [3, 4]: 18.1 nM

CC1(C)CN(c2ccccc2NC(=O)Nc2csc(Cl)n2)c2c(O)cc(F)c(-c3cc(C(F)(F)F)no3)c21 [Example 269, 1-(2-Chlorothiazol-4-yl)-3-(2-(5-fluoro-7-hydroxy-3,3-dimethyl 4-(3-(trifluoromethyl)isoxazol-5-yl)indolin-1-yl)phenyl)urea]
IC50 [1]: 0.39 µM | Ki [3, 4]: 1.2 nM

CC(C)(C)c1nc(-c2c(F)cc(O)c3c2C(C)(C)CN3c2ccccc2NC(=O)Nc2nc3ccc(Cl)cc3s2)co1 [Example 270, 1-(2-(4-(2-(tert-Butyl)oxazol-4-yl)-5-fluoro-7-hydroxy-3,3-dimethylindolin-1-yl)phenyl)-3-(6-chlorobenzo[d]thiazol-2-yl)urea]
IC50 [1]: 0.43 µM | Ki [3, 4]: 17.3 nM

CC(C)n1nc(-c2c(F)cc(O)c3c2C(C)(C)CN3c2ccccc2NC(=O)Nc2ccc(OC(F)(F)F)cc2)cc1C(F)(F)F [Example 271, 1-(2-(5-Fluoro-7-hydroxy-4-(1-isopropyl-5-(trifluoromethyl)-1H-pyrazol-3-yl)-3,3-dimethylindolin-1-yl)phenyl)-3-(4-(trifluoromethoxy)phenyl)urea]
IC50 [1]: 0.07 µM | Ki [3, 4]: 12.4 nM

CC(C)n1nc(-c2c(F)cc(O)c3c2C(C)(C)CN3c2ccccc2NC(=O)Nc2csc(C(F)(F)F)n2)cc1C(F)(F)F [Example 272, 1-(2-(5-Fluoro-7-hydroxy-4-(1-isopropyl-5-(trifluoromethyl)-1H-pyrazol-3-yl)-3,3-dimethylindolin-1-yl)phenyl)-3-(2-(trifluoromethyl)thiazol-4-yl)urea]
IC50 [1]: 0.18 µM | Ki [3, 4]: 16.7 nM

CC(C)n1nc(-c2c(F)cc(O)c3c2C(C)(C)CN3c2ccccc2NC(=O)Nc2csc(Cl)n2)cc1C(F)(F)F [Example 273, 1-(2-Chlorothiazol-4-yl)-3-(2-(5-fluoro-7-hydroxy-4-(1-isopropyl-5-(trifluoromethyl)-1H-pyrazol-3-yl)-3,3-dimethylindolin-1-yl)phenyl)urea]
IC50 [1]: 0.05 µM | Ki [3, 4]: 9.4 nM

Cc1nc(-c2c(F)cc(O)c3c2C(C)(C)CN3c2ccccc2NC(=O)Nc2ccc(OC(F)(F)F)cc2)co1 [Example 274, 1-(2-(5-Fluoro-7-hydroxy-3,3-dimethyl-4-(2-methyloxazol-4-yl)indolin-1-yl)phenyl)-3-(4-(trifluoromethoxy)phenyl)urea]
IC50 [1]: 3.39 µM | Ki [3, 4]: 7.4 nM

CC1(C)CN(c2ccccc2NC(=O)Nc2ccc(OC(F)(F)F)cc2)c2c(O)cc(F)c(-c3noc(C(F)(F)F)n3)c21 [Example 276, 1-(2-(5-Fluoro-7-hydroxy-3,3-dimethyl-4-(5-(trifluoromethyl)-1,2,4-oxadiazol-3-yl)indolin-1-yl)phenyl)-3-(4-(trifluoromethoxy)phenyl)urea]
IC50 [1]: 0.64 µM | Ki [3, 4]: 48.7 nM

CC1(C)CN(c2ccccc2NC(=O)Nc2nc3ccc(F)cc3s2)c2c(O)cc(F)c(-c3noc(C(F)(F)F)n3)c21 [Example 277, 1-(2-(5-Fluoro-7-hydroxy-3,3-dimethyl-4-(5-(trifluoromethyl)-1,2,4-oxadiazol-3-yl)indolin-1-yl)phenyl)-3-(6-fluorobenzo[d]thiazol-2-yl)urea]
IC50 [1]: 0.26 µM | Ki [3, 4]: 54.9 nM

CC(C)(C)c1nc(-c2c(F)cc(O)c3c2C(C)(C)CN3c2ccccc2NC(=O)Nc2ccc(OC(F)(F)F)cc2)no1 [Example 278, 1-(2-(4-(5-(tert-Butyl)-1,2,4-oxadiazol-3-yl)-5-fluoro-7-hydroxy-3,3-dimethylindolin-1-yl)phenyl)-3-(4-(trifluoromethoxy)phenyl)urea]
IC50 [1]: 0.21 µM | Ki [3]: 8.1 nM
